Laboratory results: PubChem BioAssay AID2335 (Sanford-Burnham Center for Chemical Genomics, 2010)
Active and inactive are the calls of the source. The rule behind the calls is not given here.

Test system: HEK293 cytotoxicity, cell viability
Test: cytotoxicity toward HEK293 cells, SAR follow-up, cell-based, revised (AID 2335)

## Cn1nccc1C(=O)NC1CCCc2c1cnn2-c1ccccc1F (stereo unspecified)
  IC50: > 20 µM (inactive)
